Reference: patent publication US11555821B2, “CA IX-NIR dyes and their uses” (On Target Laboratories, Inc., priority 2016, dated 2023)

Experiments:
[1] = test system: SKRC52 human renal tumor xenograft; assay: Whole body fluorescence imaging of SKRC52 human renal tumor xenograft bearing mouse (IVIS imager); format: in vivo; conditions: 10 nmol, within 2-24 hours after administering to the animal
Procedure: SKRC52 human renal tumor xenograft bearing mouse was injected with 10 nmol of 54 and imaged with IVIS imager (ex=745 nm, em=ICG, exposure time=1 s) at different time intervals.
SKRC52 human renal tumor xenograft bearing mouse was injected with 10 nmol of 55 and imaged with IVIS imager (ex=745 nm, em=ICG, exposure time=1 s) at different time intervals.
SKRC52 human renal tumor xenograft bearing mouse was injected with 10 nmol of 60 and imaged with IVIS imager (ex=745 nm, em=ICG, exposure time=[…]) at different time intervals.
SKRC52 human renal tumor xenograft bearing mouse was injected with 10 nmol of 61 and imaged with IVIS imager (ex=745 nm, em=ICG, exposure time=[…]) at different time intervals.
SKRC52 human renal tumor xenograft bearing mouse was injected with 10 nmol of 62 and imaged with IVIS imager (ex=745 nm, em=ICG, exposure time=1 s) at different time intervals.
SKRC52 human renal tumor xenograft bearing mouse was injected with 10 nmol of 65 and imaged with IVIS imager (ex=745 nm, em=ICG, exposure time=1 s) at different time intervals.
SKRC52 human renal tumor xenograft bearing mouse was injected with 10 nmol of 69 and imaged with IVIS imager (ex=745 nm, em=ICG, exposure time=1 s) at different time intervals.
SKRC52 human renal tumor xenograft bearing mouse was injected with 10 nmol of 70 and imaged with IVIS imager (ex=745 nm, em=ICG, exposure time=1 s) at different time intervals.
SKRC52 human renal tumor xenograft bearing mouse was injected with 10 nmol 72 and imaged with IVIS imager (ex=745 nm, em=ICG, exposure time=1 s) at different time intervals
SKRC52 human renal tumor xenograft bearing mouse was injected with 10 nmol of 76 and imaged with IVIS imager (ex=745 nm, em=ICG, exposure time=1 s) at different time intervals
SKRC52 human renal tumor xenograft bearing mouse was injected with 10 nmol of 77 and imaged with IVIS imager (ex=745 nm, em=ICG, exposure time=1 s) at different time intervals
SKRC52 human renal tumor xenograft bearing mouse was injected with 10 nmol of 80 and imaged with IVIS imager (ex=745 nm, em=ICG, exposure time=1 s) at different time intervals
SKRC52 human renal tumor xenograft bearing mouse was injected with 10 nmol of 81 and imaged with IVIS imager (ex=745 nm, em=ICG, exposure time=1 s) at different time intervals
SKRC52 human renal tumor xenograft bearing mouse was injected with 10 nmol of 85 and imaged with IVIS imager (ex=745 nm, em=ICG, exposure time=1 s) at different time intervals
SKRC52 human renal tumor xenograft bearing mouse was injected with 10 nmol of 86 and imaged with IVIS imager (ex=745 nm, em=ICG, exposure time=1 s) at different time intervals
SKRC52 human renal tumor xenograft bearing mouse was injected with 10 nmol of 87 and imaged with IVIS imager (ex=745 nm, em=ICG, exposure time=1 s) at different time intervals
SKRC52 human renal tumor xenograft bearing mouse was injected with 10 nmol of 88 and imaged with IVIS imager (ex=745 nm, em=ICG, exposure time=1 s) at different time intervals
SKRC52 human renal tumor xenograft bearing mouse was injected with 10 nmol of 89 and imaged with IVIS imager (ex=745 nm, em=ICG, exposure time=1 s) at different time intervals
SKRC52 human renal tumor xenograft bearing mouse was injected with 10 nmol of 90 and imaged with IVIS imager (ex=745 nm, em=ICG, exposure time=1 s) at different time intervals
SKRC52 human renal tumor xenograft bearing mouse was injected with 10 nmol of 93 and imaged with IVIS imager (ex=745 nm, em=ICG, exposure time=1 s) at different time intervals
SKRC52 human renal tumor xenograft bearing mouse was injected with 10 nmol of 95 and imaged with IVIS imager (ex=745 nm, em=ICG, exposure time=1 s) at different time intervals
SKRC52 human renal tumor xenograft bearing mouse was injected with 10 nmol of 99 and imaged with IVIS imager (ex=745 nm, em=ICG, exposure time=1 s) at different time intervals […]

[2] = test system: HCC827 (a human lung cancer cell line) tumor xenograft; assay: Whole body fluorescence imaging of HCC827 tumor xenograft bearing mouse (IVIS imager); format: in vivo; conditions: 10 nmol
Procedure: HCC827 (a human lung cancer cell line) tumor xenograft bearing mouse was injected with 10 nmol of 61 and imaged with IVIS imager (ex=745 nm, em=ICG, exposure time=1 s) at different time intervals.
(§1) HT29 (a human colon cancer cell line) and HCC827 (a human lung cancer cell line) tumor xenograft bearing mouse was injected with 10 nmol of 61 and imaged with IVIS imager (ex=745 nm, em=ICG, exposure time=1 s) at different time intervals.

[3] = test system: HT29 (a human colon cancer cell line) tumor xenograft; assay: Whole body fluorescence imaging of HT29 tumor xenograft bearing mouse (IVIS imager); format: in vivo; conditions: 10 nmol
Procedure: HT29 (a human colon cancer cell line) tumor xenograft bearing mouse was injected with 10 nmol of 61 and imaged with IVIS imager (ex=745 nm, em=ICG, exposure time=1 s) at different time intervals.
as §1

SKRC52 xenografts = assay: Fluorescence imaging of tumor accumulation of OTL410 in nude mice bearing SKRC52 xenografts (AMI imager); format: in vivo, mouse
Procedure: FIG. 49 illustrates the time course of tumor accumulation by OTL410 by fluorescence imaging of nude mice bearing SKRC52 xenografts. After intravenous administration of 1 nmol of the conjugate in 100 μl of 5% aqueous dextrose, mice were anesthetized by isoflurane right before collecting each image. Tumor accumulation is evident as early as 15 min after injection of the conjugate, reaching peak intensity by 4 h.
Mice were euthanized by CO2 inhalation 3 h after intravenous administration of indicated concentrations of the conjugate, and epifluorescence images were collected ex vivo (Ex=745 nm, Em=810 nm FOV=25, binning 2, lamp power=55%). Five mice/per group were used for doses 0.25 nmol to 20 nmol, and image of 1 mouse representing each dose is presented.
Tumor Implantation and imaging: For establishing subcutaneous tumors from SKRC52, HT29 and 22RV1 cells, female nude mice were inoculated subcutaneously with 5×10^6 cells in 150 μl of 50% matrigel on the flank. KB tumors were established by inoculating female nude mice subcutaneously with 1×10^6 KB cells in 100 μl of folate deficient RPMI 1640 media. MDA MB-231 tumors were established by inoculating female nude mice subcutaneously with 2×10^6 cells in 100 μl of RPMI 1640 media. Tumor sizes were measured using a digital calipers and tumor volumes were calculated using the formula (L/2)×W2 where L and W represent the length and width of the tumor. When the tumors reached desired size (500-700 mm3), mice were randomly assigned to groups of 4-5. Each mouse was injected with varying concentrations of OTL410 in 100 μl of 5% aqueous dextrose. For the time course study, mice were imaged under anesthesia at varying time points starting at 15 minutes and up to 24 h using a Spectral AMI imaging system (Spectral Instruments Imaging) using the imaging parameters t=1 sec, f stop=2, FOV=25, binning=2, and lamp power=55%. For the biodistribution studies, mice were euthanized at 3 h, 12 h or 24 h after injection of OTL410, and fluorescence images were collected ex vivo using the same instrument and imaging parameters described above. For quantification of tumor to background ratios, region of interest (ROI) was drawn for tumor and each tissue of interest and the total and mean fluorescence intensity were calculated using the proprietary software from Spectral Instruments. TBR for each organ and respective standard deviations were calculated using Excel software.

[4] = test system: MDA-MB-231, a triple negative breast cancer cell line; assay: OTL410 accumulation in MDA-MB-231 tumor xenografts (AMI imager); format: in vivo; conditions: MDA-MB-231, 2 nmol/mouse, 4 h
Procedure: (§2) FIGS. 54A and 54B illustrate KB, a derivative of HeLa cervical cancer cell line. FIGS. 54C and 54D illustrate MDA-MB-231, a triple negative breast cancer cell line. FIGS. 54E and 54F illustrate FaDu, a head & neck cancer cell line; and FIGS. 54G and 54H illustrate HT29, a colorectal cancer cell line. OTL410 was administered at a dose of 2 nmol/mouse in 100 μl of 5% aqueous dextrose, and the images were collected 4 h later using an AMI imager with the mice under anesthesia.
(§3) Tumor Implantation and imaging: For establishing subcutaneous tumors from SKRC52, HT29 and 22RV1 cells, female nude mice were inoculated subcutaneously with 5×10^6 cells in 150 μl of 50% matrigel on the flank. […] Tumor sizes were measured using a digital calipers and tumor volumes were calculated using the formula (L/2)×W2 where L and W represent the length and width of the tumor. […] For the biodistribution studies, mice were euthanized at 3 h, 12 h or 24 h after injection of OTL410, and fluorescence images were collected ex vivo using the same instrument and imaging parameters described above. For quantification of tumor to background ratios, region of interest (ROI) was drawn for tumor and each tissue of interest and the total and mean fluorescence intensity were calculated using the proprietary software from Spectral Instruments. TBR for each organ and respective standard deviations were calculated using Excel software.

[5] = test system: KB, a derivative of HeLa cervical cancer cell line; assay: OTL410 accumulation in KB tumor xenografts (AMI imager); format: in vivo; conditions: 2 nmol/mouse, 4 h
Procedure: as §2, §3

[6] = test system: HT29, a colorectal cancer cell line; assay: OTL410 accumulation in HT29 tumor xenografts (AMI imager); format: in vivo; conditions: HT29, 2 nmol/mouse, 4 h
Procedure: as §2, §3

[7] = test system: CAIX expressing SKRC52 tumor; assay: OTL410 fluorescence-guided resection of CAIX expressing SKRC52 tumor from nude mice; format: in vivo; conditions: 1 nmol/mouse, euthanized 24 h later
Procedure: OTL410 was administered at a dose of 1 nmol/mouse in 100 μl of 5% aqueous dextrose, and the mouse was euthanized 24 h later. FIG. 53A illustrates the image acquired after ex vivo whole-body fluorescence imaging and skin around the tumor was removed. FIG. 53B illustrates, guided by the fluorescence image, the image acquired after the tumor was resected.
as §3

SKRC52 cells = assay: Uptake of OTL410 by SKRC cells in vitro by fluorescence microscopy; format: cell-based, human; conditions: 100 nmols, 2 h
Procedure: SKRC52 cells were incubated with 100 nmols of OTL410 for 2 h, and fluorescence images were acquired after removing unbound conjugate, and washing cells 2× with media.
For competition studies, 50,000 SKRC cells were grown on 8 well glass bottom slides for 48 h. Spent media was removed, and the cells were incubated with 100 nmols of OTL410 in 500 μl of fresh media alone or in presence of 200× non-fluorescent ligand (i.e. OTL410 without the dye) in a cell culture incubator for 2 h. Cells were then washed 2× with 500 μl of media, and after the second step of washing, 500 μl of serum free media was added to the cells. These cells were then imaged using a Nikon wide-field microscope.

[8] = test system: FaDu, a head & neck cancer cell line; assay: OTL410 accumulation in FaDu tumor xenografts (AMI imager); format: in vivo; conditions: 2 nmol/mouse, 4 h
Procedure: as §2

[9] = 1 nmol intravenous in 5% aqueous dextrose

CC1(C)C(/C=C/C2=C(Oc3ccc(C[C@H](NC(=O)CCOCCOCCNC(=O)CCS(=O)(=O)c4c(F)c(F)c(S(N)(=O)=O)c(F)c4NC4CCCCCCC4)C(=O)O)cc3)C(=C/C=C3/N(CCCCS(=O)(=O)O)c4ccc(S(=O)(=O)O)cc4C3(C)C)/CCC2)=[N+](CCCCS(=O)(=O)[O-])c2ccc(S(=O)(=O)O)cc21 [Compound 61, 4-(2-((E)-2-((E)-2-(4-((S)-2-carboxy-16-((2-(cyclooctylamino)-3,5,6-trifluoro-4-sulfamoylphenyl)sulfonyl)-4,14-dioxo-7,10-dioxa-3,13-diazahexadecyl)phenoxy)-3-(2-((E)-3,3-dimethyl-5-sulfo-1-(4-sulfobutyl)indolin-2-ylidene)ethylidene)cyclohex-1-en-1-yl)vinyl)-3,3-dimethyl-5-sulfo-3H-indol-1-ium-1-yl)butane-1-sulfonate]
whole-body imaging data [1]: very good
accumulation in CA IX-negative tumor xenografts of lung cancer versus other healthy tissues [2]: selectively accumulated
accumulation in CA IX-negative tumor xenografts of colon cancer versus other healthy tissues [3]: selectively accumulated

CC1(C)C(/C=C/C2=C(Oc3ccc(C[C@H](NC(=O)CCOCCOCCNC(=O)CCCS(=O)(=O)c4c(F)c(F)c(S(N)(=O)=O)c(F)c4NC4CCCCCCC4)C(=O)O)cc3)C(=C/C=C3/N(CCCCS(=O)(=O)O)c4ccc(S(=O)(=O)O)cc4C3(C)C)/CCC2)=[N+](CCCCS(=O)(=O)[O-])c2ccc(S(=O)(=O)O)cc21 [OTL410]
dose dependence of accumulation in SKRC52 tumor xenografts (SKRC52 xenografts; 0.25 nmol to 20 nmol intravenous, 3 h, ex vivo images): dose dependent accumulation
time after injection at which tumor accumulation is evident (SKRC52 xenografts; [9]): ≤ 15 min
time of peak tumor fluorescence intensity (SKRC52 xenografts; [9]): ≤ 4 h
tumor fluorescence intensity at 8 h (SKRC52 xenografts; 1 nmol intravenous, 8 h): No loss in fluorescence intensity
tumor fluorescence intensity maintained after 24 h (SKRC52 xenografts; 1 nmol intravenous, 24 h): ~80 % of peak intensity
accumulation in tumor xenografts [4]: tumor-specific accumulation
accumulation in tumor xenografts [5]: tumor-specific accumulation
accumulation in tumor xenografts [6]: tumor-specific accumulation
fluorescence-guided tumor resection [7]: complete removal of the tumor with no fluorescent cells left behind
uptake by SKRC cells in vitro (SKRC52 cells): uptake
accumulation in tumor xenografts [8]: tumor-specific accumulation
